Reference: ChEMBL document CHEMBL5360655, “Design, Synthesis, and Biological Evaluation of Novel P2X7 Receptor Antagonists for the Treatment of Septic Acute Kidney Injury” (J Med Chem, 2023)
pIC50: −log10 of the molar value. The source made the active and inactive calls. The rule behind the calls is not given here.

Columns and labels:
[1] = target: T1, P2X purinoceptor 7 (Homo sapiens) (UniProt Q99572); test: Antagonist activity at human P2X7 receptor expressed in HEK293 cells assessed as inhibition of ATP-induced receptor pore formation at 200 nM by propidium iodide dye uptake based fluorescence analysis; type: cell-based; conditions: filed as antagonist
T1 sequence (whole entry): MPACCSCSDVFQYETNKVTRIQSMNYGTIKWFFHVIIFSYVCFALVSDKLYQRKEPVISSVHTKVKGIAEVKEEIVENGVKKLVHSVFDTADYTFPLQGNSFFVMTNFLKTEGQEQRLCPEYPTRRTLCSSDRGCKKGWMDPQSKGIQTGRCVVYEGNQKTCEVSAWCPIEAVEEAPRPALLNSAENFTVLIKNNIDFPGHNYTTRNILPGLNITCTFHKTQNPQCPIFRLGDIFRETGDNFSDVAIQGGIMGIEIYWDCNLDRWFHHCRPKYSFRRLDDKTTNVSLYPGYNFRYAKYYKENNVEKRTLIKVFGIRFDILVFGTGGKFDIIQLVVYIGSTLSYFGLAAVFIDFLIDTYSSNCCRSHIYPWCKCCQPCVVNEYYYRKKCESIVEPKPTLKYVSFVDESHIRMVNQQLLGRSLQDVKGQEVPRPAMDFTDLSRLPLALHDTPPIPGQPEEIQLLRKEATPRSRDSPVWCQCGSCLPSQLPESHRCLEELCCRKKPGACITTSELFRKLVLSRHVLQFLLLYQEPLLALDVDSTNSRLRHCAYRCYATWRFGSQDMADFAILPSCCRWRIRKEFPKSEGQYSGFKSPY

HEK293 = test: Cytotoxicity against human HEK293 cells transfected with mouse P2X7 receptor assessed as effect on cell viability at 1 to 4 uM incubated for 2 hrs by CCK8 assay; type: toxicity, cell-based; conditions: hek293, 2 h, dose 1-4 µM
THP-1 [2] = test: Inhibition of ATP-induced apoptosis in human THP-1 cells at 0.5 to […] pretreated with LPS for 3 hrs followed by incubation with compound for 40 mins followed by treatment with ATP for 6 hrs by CCK8 assay; type: functional, cell-based; conditions: dose 0.5-2.5 µM, time 400.0 min
P2X purinoceptor 7 = target: T2, P2X purinoceptor 7 (Homo sapiens, UniProt Q99572); test: Antagonist activity at P2X7 receptor in human THP-1 cells assessed as inhibition of ATP-induced IL-1beta secretion pretreated with LPS for 3 hrs followed by incubation with compound for 40 mins followed by treatment with ATP for 1 hr by ELISA; type: cell-based
T2 sequence (Q99572 whole entry): T1 sequence (whole entry)

[3] = AUC(0 to t) in BALB/c mouse at 10 mg/kg, ip measured for 24 hrs by LC-MS/MS analysis; type: ADME, organism-based; parameters: dose 10 mg/kg, time 24 hrs, route ip; conditions: in vivo
[4] = Toxicity in ip dosed C57BL/6J mouse assessed as maximum tolerated dose and measured for 14 days; type: organism-based; conditions: in vivo, time 14 day
[5] = Tmax in BALB/c mouse at 10 mg/kg, po measured for 24 hrs by LC-MS/MS analysis; type: ADME, organism-based; conditions: in vivo
[6] = Half life in mouse liver microsomes; type: ADME, Microsome
Mus musculus [7] = test: (§1) Reno-protective activity against CLP-induced acute kidney injury C57BL/6J mouse model assessed as decrease in GSDMD-N protein expression in kidney at 20 mg/kg, ip administered twice at 30 mins prior to CLP operation and 8 hrs post-CLP operation and measured at 16 hrs post-CLP operation by western blot analysis; type: functional, organism-based; conditions: time 16.5 hrs
[8] = AUC(0 to t) in BALB/c mouse at 10 mg/kg, po measured for 24 hrs by LC-MS/MS analysis; type: ADME, organism-based; parameters: time 24 hrs, dose 10 mg/kg, route po; conditions: in vivo
[9] = Clearance in BALB/c mouse at 10 mg/kg, ip measured for 24 hrs by LC-MS/MS analysis; type: ADME, organism-based; conditions: in vivo
Mus musculus [10] = test: Reno-protective activity against ip dosed LPS-induced acute kidney injury C57BL/6J mouse model assessed as decrease in serum […] level administered twice at 30 mins prior to LPS challenge and 8 hrs post-LPS challenge and measured at 16 hrs post-LPS challenge; type: functional; conditions: time 16.5 hrs, read-out: MED
[11] = Toxicity in C57BL/6J mouse assessed as animal's survival rate at 400 mg/kg, ip measured for 14 days; type: organism-based; conditions: in vivo, time 14 day
[12] = Toxicity in C57BL/6J mouse assessed as pathological changes in testes at 20 mg/kg, ip administered twice at 0 hrs and 8 hrs and measured after 16 hrs by Hematoxylin-Eosin staining based analysis; type: organism-based; conditions: in vivo
Mus musculus [13] = test: Reno-protective activity against LPS-induced acute kidney injury C57BL/6J mouse model assessed as decrease in KIM1 mRNA expression in kidney at 5 to 20 mg/kg, ip administered twice at 30 mins prior to LPS challenge and 8 hrs post-LPS challenge and measured at 16 hrs post-LPS challenge by RT-qPCR analysis; type: functional, organism-based; conditions: dose 5-20 mg/kg, time 16.5 hrs
[14] = AUC(0 to t) in BALB/c mouse at 10 mg/kg, iv measured for 24 hrs by LC-MS/MS analysis; type: ADME, organism-based; parameters: time 24 hrs, dose 10 mg/kg, route iv; conditions: in vivo
[15] = Intrinsic clearance in mouse liver microsomes; type: ADME, Microsome; conditions: read-out: CLH
Mus musculus [16] = test: as §1, with “cleaved caspase 1 (p20)” for “GSDMD-N”; type: functional, organism-based; conditions: time 16.5 hrs
Mus musculus [17] = test: as §1, with “tubular injury” for “GSDMD-N protein expression in kidney”, “Hematoxylin-Eosin staining based” for “western blot”; type: functional, organism-based; conditions: time 16.5 hrs
Cytochrome P450 2C9 = Cytochrome P450 2C9 (Homo sapiens, UniProt P11712); test: Inhibition of CYP2C9 in human liver microsomes using tolbutamide as substrate upto 100 uM incubated for 10 mins in presence of NADPH by LC-MS/MS analysis; type: ADME, Microsome
Mus musculus [18] = test: Reno-protective activity against LPS-induced acute kidney injury C57BL/6J mouse model assessed as decrease in serum […] level at 10 mg/kg, ip administered twice at 30 mins prior to LPS challenge and 8 hrs post-LPS challenge and measured at 16 hrs post-LPS challenge; type: functional, organism-based; conditions: time 16.5 hrs
[19] = target: T1, P2X purinoceptor 7 (Homo sapiens); test: Antagonist activity at human P2X7 receptor expressed in HEK293 cells assessed as inhibition of ATP-induced receptor pore formation at 1 uM by propidium iodide dye uptake based fluorescence analysis; type: cell-based; conditions: filed as antagonist
[20] = target: T1, P2X purinoceptor 7 (Homo sapiens); test: Antagonist activity at P2X7 receptor in human THP-1 cells assessed as inhibition of ATP-induced NLRP3 inflammasome activation at 0.1 to […] pretreated with LPS for 3 hrs followed by incubation with compound for 40 mins followed by treatment with ATP for 1 hr by western blot analysis; type: cell-based; conditions: filed as antagonist, dose 0.1-2.5 µM, time 100.0 min
THP-1 [21] = test: Effect on P2X7 receptor expression in human THP-1 cells at 0.1 to […] pretreated with LPS for 3 hrs followed by incubation with compound for 40 mins followed by treatment with ATP for 1 hr by western blot analysis; type: functional, cell-based; conditions: dose 0.1-2.5 µM, time 100.0 min
Mus musculus [22] = test: as §1, with “Il1b gene” for “GSDMD-N protein”, “RNA sequencing” for “western blot”; type: functional, organism-based; conditions: time 16.5 hrs
Mus musculus [23] = test: Reno-protective activity against CLP-induced acute kidney injury C57BL/6J mouse model assessed as decrease in KIM1 mRNA expression in kidney at 20 mg/kg, ip administered twice at 30 mins prior to CLP operation and 8 hrs post-CLP operation and measured at 16 hrs post-CLP operation by RT-qPCR analysis; type: functional, organism-based; conditions: time 16.5 hrs

Cytochrome P450 2C9, sequence (P11712 whole entry): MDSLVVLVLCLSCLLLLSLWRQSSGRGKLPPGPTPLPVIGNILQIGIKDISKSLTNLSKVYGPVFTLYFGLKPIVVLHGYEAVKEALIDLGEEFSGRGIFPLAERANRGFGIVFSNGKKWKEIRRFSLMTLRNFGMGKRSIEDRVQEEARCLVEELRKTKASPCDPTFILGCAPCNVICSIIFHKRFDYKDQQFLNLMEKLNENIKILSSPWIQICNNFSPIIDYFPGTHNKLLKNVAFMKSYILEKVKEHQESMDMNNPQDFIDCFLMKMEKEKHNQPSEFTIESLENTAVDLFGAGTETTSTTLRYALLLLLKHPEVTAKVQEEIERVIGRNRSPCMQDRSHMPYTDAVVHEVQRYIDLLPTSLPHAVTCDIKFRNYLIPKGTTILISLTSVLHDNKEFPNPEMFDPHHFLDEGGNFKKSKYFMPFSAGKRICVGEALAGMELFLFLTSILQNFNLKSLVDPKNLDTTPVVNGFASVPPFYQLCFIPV

With `CS(=O)(=O)c1ccc(-c2nc(C(=O)NCc3cn(-c4cc(Br)ccn4)nn3)cs2)cc1` the inhibition [1] was 92%, the Activity (HEK293) was “Non-Toxic” and the inhibition (THP-1 [2]) was “Active”. It also gave a pIC50 (P2X purinoceptor 7) of 6.49, an AUC(0-t) at 24 h [3] of 11900 ng·h/mL and an MTD at 336 h [4] of 400 mg/kg. For the same compound, the Tmax [5] was 1.17 h, the half-life [6] was greater than 120 min and the Activity (Mus musculus [7]) was “Active”. For the same compound, the AUC(0-t) at 24 h [8] was 6510 ng·h/mL, the CL/F [9] was 12.7 mL/min/kg and the minimal effective dose (Mus musculus [10]) was 5 mg/kg. For the same compound, the survival at 336 h [11] was 100%, the Activity [12] was “Non-Toxic” and the Activity (Mus musculus [13]) was “Dose-Dependent Effect”. The AUC(0-t) at 24 h [14] was 16600 ng·h/mL, the CLint scaled [15] was less than 12 mL/min/kg and the Activity (Mus musculus [16]) was “Active”. For the same compound, the Activity (Mus musculus [17]) was “Active”, the “inhibition (INH)” value (Cytochrome P450 2C9) was “Not Active” and the Activity (Mus musculus [18]) was “Active”. For the same compound, the inhibition [19] was 112%, the inhibition [20] was “Active” and the Activity (THP-1 [21]) was “inactive”. For the same compound, the Activity (Mus musculus [22]) was “Active” and the Activity (Mus musculus [23]) was “Active”.
